Patent US9487749B2 (priority 2009, dated 2016)
Values joined by “and” are separate entries in the source; they are usually repeats but may differ in a detail not shown here. Equal values may be shown once.

What was measured:
Type in all cases: cell-based
Aspergillus niger = test: USP Antimicrobial Effectiveness Test (AET) of MSM supplemented TSB; set-up: key to AET test results (microorganism count): Colonies too numerous to count (TNTC); conditions: for Log Reduction from Initial Microorganism Inoculum: 1:10 dilution of MSM, 14 Days, 28 Days; for AET test results (microorganism count): 48 hrs
From the text: (§1) Compounds or formulated products having antimicrobial activity may be evaluated with the United States Pharmacopeia (USP) Antimicrobial Effectiveness Test (AET). The AET involves the addition of specified microorganisms (Candida albicans, Aspergillus niger, Escherichia coli, Pseudomonas aeruginosa and Staphylococcus aureus) directly to a test product at relatively high concentrations to simulate contamination. The product is held for one month, with weekly analysis of microorganism levels. […] For yeast and mold, no increase from the initial inoculums level is permitted. […] Inoculations were made using Candida albicans, Aspergillus niger, Escherichia coli, Pseudomonas aeruginosa and Staphylococcus aureus. Tryptic soy broth (TSB) was used as the culturing media. […] The inoculated media was held for one month, during which time the added microorganisms were enumerated weekly to determine if they were growing, dying off, or remaining near the initial inoculation level. […] The acceptance criteria for antimicrobial effectiveness are described in detail in the USP, herein incorporated by reference.

Candida albicans = test: as above; set-up: key to AET test results (microorganism count): Colonies too numerous to count (TNTC); conditions: for Log Reduction from Initial Microorganism Inoculum: 1:10 dilution of MSM, 14 Days, 28 Days; for AET test results (microorganism count): 48 hrs
From the text: as §1

Staphylococcus aureus = test: as above; set-up: key to AET test results (microorganism count): Colonies too numerous to count (TNTC); conditions: for Log Reduction from Initial Microorganism Inoculum: 1:10 dilution of MSM, 14 Days, 28 Days; for AET test results (microorganism count): 48 hrs
From the text: as §1

[1] = tested on: Lactobacillus acidophilus; test: Growth of Lactobacillus acidophilus in Acidophilus milk fortified with MSM
From the text: 31, 2013. […] The Acidophilus milk was low fat (Darigold).

CS(C)(=O)=O [MSM, Methylsulfonylmethane]
Log Reduction from Initial Microorganism Inoculum (Aspergillus niger; after 14 days): 4.3 log | Log Reduction from Initial Microorganism Inoculum (Aspergillus niger; after 28 days): 4.5 log | AET test results (microorganism count) (Aspergillus niger; 1:100 dilution of MSM in TSB): TNTC* | AET test results (microorganism count) (Aspergillus niger; 1:1000 dilution of MSM in TSB): TNTC* | Log Reduction from Initial Microorganism Inoculum (Candida albicans; after 14 days): 4.2 log | Log Reduction from Initial Microorganism Inoculum (Candida albicans; after 28 days): 4.4 log | AET test results (microorganism count) (Candida albicans; 1:100 dilution of MSM in TSB): TNTC | AET test results (microorganism count) (Candida albicans; 1:1000 dilution of MSM in TSB): TNTC | Log Reduction from Initial Microorganism Inoculum (Staphylococcus aureus; after 14 days): 4.5 log | Log Reduction from Initial Microorganism Inoculum (Staphylococcus aureus; after 28 days): 4.7 log | AET test results (microorganism count) (Staphylococcus aureus; 1:100 dilution of MSM in TSB): TNTC | AET test results (microorganism count) (Staphylococcus aureus; 1:1000 dilution of MSM in TSB): TNTC | peak growth ([1]; 0.5% MSM): 10.72 logs | log growth lower than control ([1]; 0.5% MSM, listed as order: Day 14, Day 28): 0.74 logs and 1.00 logs | peak growth ([1]; 5.0% MSM): 10.89 log | log increase in growth within the first 8 hours (duplicates) ([1]; […] MSM): 2.27 logs | peak growth ([1]; […] MSM): 10.59 logs | log growth lower than control ([1]; […] MSM, Day 28): 0.68 logs | Growth of Lactobacillus acidophilus in Milk fortified with MSM average ([1]; 0.50% MSM, Day 7): 10.68 log | Growth of Lactobacillus acidophilus in Milk fortified with MSM average ([1]; 0.50% MSM, Day 14): 6.22 log | Log Growth of Lactobacillus acidophilus in Milk fortified with MSM ([1]; 0.50% MSM, Day 21): 5.37 log | Growth of Lactobacillus acidophilus in Milk fortified with MSM average ([1]; 0.50% MSM, Day 21): 5.37 log | Growth of Lactobacillus acidophilus in Milk fortified with MSM average ([1]; 0.50% MSM, Day 28): 3.00 log | Growth of Lactobacillus acidophilus in Milk fortified with MSM average ([1]; 0.50% MSM, hour 0): 6.98 log | Log Growth of Lactobacillus acidophilus in Milk fortified with MSM ([1]; 0.50% MSM, hour 8): 9.06 log and 9.00 log | Growth of Lactobacillus acidophilus in Milk fortified with MSM average ([1]; 0.50% MSM, hour 8): 9.03 log | Growth of Lactobacillus acidophilus in Milk fortified with MSM average ([1]; 0.50% MSM, hour 24): 9.38 log | Log Growth of Lactobacillus acidophilus in Milk fortified with MSM ([1]; 0.50% MSM, hour 32): 9.12 log | Growth of Lactobacillus acidophilus in Milk fortified with MSM average ([1]; 0.50% MSM, hour 32): 9.16 log | Log Growth of Lactobacillus acidophilus in Milk fortified with MSM ([1]; 0.50% MSM, hour 48): 8.55 log and 8.69 log | Growth of Lactobacillus acidophilus in Milk fortified with MSM average ([1]; 0.50% MSM, hour 48): 8.62 log | Log Growth of Lactobacillus acidophilus in Milk fortified with MSM ([1]; 0.50% MSM, hour 56): 8.77 log and 8.69 log | Growth of Lactobacillus acidophilus in Milk fortified with MSM average ([1]; 0.50% MSM, hour 56): 8.73 log | Log Growth of Lactobacillus acidophilus in Milk fortified with MSM ([1]; 0.50% MSM, hour 72): 8.56 log and 8.67 log | Growth of Lactobacillus acidophilus in Milk fortified with MSM average ([1]; 0.50% MSM, hour 72): 8.62 log | Growth of Lactobacillus acidophilus in Milk fortified with MSM average ([1]; 0.50% MSM, hour 80): 9.72 log | Growth of Lactobacillus acidophilus in Milk fortified with MSM average ([1]; 0.50% MSM, hour 96): 10.09 log | Growth of Lactobacillus acidophilus in Milk fortified with MSM average ([1]; 0.50% MSM, hour 104): 9.50 log | Growth of Lactobacillus acidophilus in Milk fortified with MSM average ([1]; 5.00% MSM, Day 7): 10.71 log | Growth of Lactobacillus acidophilus in Milk fortified with MSM average ([1]; 5.00% MSM, Day 14): 8.04 log | Log Growth of Lactobacillus acidophilus in Milk fortified with MSM ([1]; 5% MSM, Day 21): 5.64 log and 5.48 log | Growth of Lactobacillus acidophilus in Milk fortified with MSM average ([1]; 5.00% MSM, Day 21): 5.56 log | Log Growth of Lactobacillus acidophilus in Milk fortified with MSM ([1]; 5% MSM, Day 28): 2.52 log | Growth of Lactobacillus acidophilus in Milk fortified with MSM average ([1]; 5.00% MSM, Day 28): 2.52 log | Log Growth of Lactobacillus acidophilus in Milk fortified with MSM ([1]; 5% MSM, hour 0): 6.56 log and 6.47 log | Growth of Lactobacillus acidophilus in Milk fortified with MSM average ([1]; 5.00% MSM, hour 0): 6.52 log | Growth of Lactobacillus acidophilus in Milk fortified with MSM average ([1]; 5.00% MSM, hour 8): 8.91 log | Growth of Lactobacillus acidophilus in Milk fortified with MSM average ([1]; 5.00% MSM, hour 24): 9.29 log | Growth of Lactobacillus acidophilus in Milk fortified with MSM average ([1]; 5.00% MSM, hour 32): 9.26 log | Log Growth of Lactobacillus acidophilus in Milk fortified with MSM ([1]; 5% MSM, hour 48): 8.78 log and 8.72 log | Growth of Lactobacillus acidophilus in Milk fortified with MSM average ([1]; 5.00% MSM, hour 48): 8.75 log | Log Growth of Lactobacillus acidophilus in Milk fortified with MSM ([1]; 5% MSM, hour 56): 8.88 log and 8.7 log | Growth of Lactobacillus acidophilus in Milk fortified with MSM average ([1]; 5.00% MSM, hour 56): 8.79 log | Log Growth of Lactobacillus acidophilus in Milk fortified with MSM ([1]; 5% MSM, hour 72): 8.75 log and 8.63 log | Growth of Lactobacillus acidophilus in Milk fortified with MSM average ([1]; 5.00% MSM, hour 72): 8.69 log | Growth of Lactobacillus acidophilus in Milk fortified with MSM average ([1]; 5.00% MSM, hour 80): 9.79 log | Growth of Lactobacillus acidophilus in Milk fortified with MSM average ([1]; 5.00% MSM, hour 96): 10.20 log | Growth of Lactobacillus acidophilus in Milk fortified with MSM average ([1]; 5.00% MSM, hour 104): 9.56 log | Growth of Lactobacillus acidophilus in Milk fortified with MSM average ([1]; […] MSM, Day 7): 10.50 log | Growth of Lactobacillus acidophilus in Milk fortified with MSM average ([1]; […] MSM, Day 14): 7.33 log
